This assay deals with IL-17RA/IL17RC dimerization induced by IL-17A (Homo sapiens, UniProt Q16552). In words: IL-17RA/IL17RC dimerization assay in response to IL-17A (PathHunter Cytokine Receptor Assay). The format is cell-based. The following applies: IL-17A at EC80; read-out: IC50 in IL-17RA/IL7RC dimerization assay. Summed up:
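Receptor dimerization was read as chemiluminescence from complemented β-galactosidase after IL-17A at EC80 concentration for 6–16 h at 37 °C. Peptides were added 60 min before agonist, at 37 °C or room temperature, with 1% vehicle. Percent inhibition used the EC80-stimulated and vehicle wells as references.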

The structures appear in SMILES notation. Residues, ends and D or L forms follow the SMILES beside them.

Sequence of IL-17RA/IL17RC dimerization induced by IL-17A (Q16552 24-155): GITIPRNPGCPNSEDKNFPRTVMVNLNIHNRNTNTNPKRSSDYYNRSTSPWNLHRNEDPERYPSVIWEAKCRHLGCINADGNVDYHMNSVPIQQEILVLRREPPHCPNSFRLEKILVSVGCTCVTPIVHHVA

Regarding `CC[C@H](C)[C@H](NC(=O)[C@H](Cc1c[nH]c2ccccc12)NC(=O)[C@H](CC(=O)O)NC(=O)[C@H](Cc1c[nH]c2ccccc12)NC(=O)[C@H](CC(C)C)NC(=O)[C@H](CC(=O)O)NC(=O)[C@H](C)NC(=O)[C@@H]1CCCN1C(=O)[C@@H](NC(=O)[C@@H](NC(=O)[C@@H](NC(=O)[C@H](Cc1c[nH]cn1)NC(=O)[C@@H]1CCCN1C(C)=O)C(C)C)[C@@H](C)O)[C@@H](C)CC)C(=O)N[C@@H](CC(N)=O)C(=O)N[C@@H](CCCCN)C(N)=O` [SEQ ID NO: 161] (Ac-PHVTIPADLWDWINK-NH2), the IC50 was less than 10 µM.

In the case of `CC[C@H](C)[C@H](NC(C)=O)C(=O)N[C@@H](CCCNC(=N)N)C(=O)N[C@H](C(=O)N[C@H](C(=O)N[C@H](C(=O)N1CCC[C@H]1C(=O)N[C@@H](C)C(=O)N[C@@H](CC(=O)O)C(=O)N[C@@H](CC(C)C)C(=O)N[C@@H](Cc1c[nH]c2ccccc12)C(=O)N[C@@H](CC(=O)O)C(=O)N[C@@H](Cc1c[nH]c2ccccc12)C(=O)N[C@H](C(=O)N[C@@H](CC(N)=O)C(=O)N[C@@H](CCCCN)C(N)=O)[C@@H](C)CC)[C@@H](C)CC)[C@@H](C)O)C(C)C` [SEQ ID NO: 162] (Ac-IRVTIPADLWDWINK-NH2), the IC50 is less than 10 µM.

As to `CC[C@H](C)[C@H](NC(C)=O)C(=O)N[C@@H](CCCCN)C(=O)N[C@H](C(=O)N[C@H](C(=O)N[C@H](C(=O)N1CCC[C@H]1C(=O)N[C@@H](C)C(=O)N[C@@H](CC(=O)O)C(=O)N[C@@H](CC(C)C)C(=O)N[C@@H](Cc1c[nH]c2ccccc12)C(=O)N[C@@H](CC(=O)O)C(=O)N[C@@H](Cc1c[nH]c2ccccc12)C(=O)N[C@H](C(=O)N[C@@H](CC(N)=O)C(=O)N[C@@H](CCCCN)C(N)=O)[C@@H](C)CC)[C@@H](C)CC)[C@@H](C)O)C(C)C` [SEQ ID NO: 163] (Ac-IKVTIPADLWDWINK-NH2), the IC50 is less than 10 µM.

For the molecule `CC[C@H](C)[C@H](NC(C)=O)C(=O)N[C@@H](CCC(=O)O)C(=O)N[C@H](C(=O)N[C@H](C(=O)N[C@H](C(=O)N1CCC[C@H]1C(=O)N[C@@H](C)C(=O)N[C@@H](CC(=O)O)C(=O)N[C@@H](CC(C)C)C(=O)N[C@@H](Cc1c[nH]c2ccccc12)C(=O)N[C@@H](CC(=O)O)C(=O)N[C@@H](Cc1c[nH]c2ccccc12)C(=O)N[C@H](C(=O)N[C@@H](CC(N)=O)C(=O)N[C@@H](CCCCN)C(N)=O)[C@@H](C)CC)[C@@H](C)CC)[C@@H](C)O)C(C)C` [SEQ ID NO: 164] (Ac-IEVTIPADLWDWINK-NH2), the IC50 was less than 10 µM.

In the case of `CC[C@H](C)[C@H](NC(C)=O)C(=O)N[C@@H](CCC(N)=O)C(=O)N[C@H](C(=O)N[C@H](C(=O)N[C@H](C(=O)N1CCC[C@H]1C(=O)N[C@@H](C)C(=O)N[C@@H](CC(=O)O)C(=O)N[C@@H](CC(C)C)C(=O)N[C@@H](Cc1c[nH]c2ccccc12)C(=O)N[C@@H](CC(=O)O)C(=O)N[C@@H](Cc1c[nH]c2ccccc12)C(=O)N[C@H](C(=O)N[C@@H](CC(N)=O)C(=O)N[C@@H](CCCCN)C(N)=O)[C@@H](C)CC)[C@@H](C)CC)[C@@H](C)O)C(C)C` [SEQ ID NO: 165] (Ac-IQVTIPADLWDWINK-NH2), the IC50 was less than 10 µM.

`CC[C@H](C)[C@H](NC(C)=O)C(=O)N[C@@H](Cc1ccc(O)cc1)C(=O)N[C@H](C(=O)N[C@H](C(=O)N[C@H](C(=O)N1CCC[C@H]1C(=O)N[C@@H](C)C(=O)N[C@@H](CC(=O)O)C(=O)N[C@@H](CC(C)C)C(=O)N[C@@H](Cc1c[nH]c2ccccc12)C(=O)N[C@@H](CC(=O)O)C(=O)N[C@@H](Cc1c[nH]c2ccccc12)C(=O)N[C@H](C(=O)N[C@@H](CC(N)=O)C(=O)N[C@@H](CCCCN)C(N)=O)[C@@H](C)CC)[C@@H](C)CC)[C@@H](C)O)C(C)C` [SEQ ID NO: 166] (Ac-IYVTIPADLWDWINK-NH2): the IC50 is less than 10 µM.

As to `CC[C@H](C)[C@H](NC(C)=O)C(=O)N[C@@H](Cc1c[nH]cn1)C(=O)N[C@@H](C)C(=O)N[C@H](C(=O)N[C@H](C(=O)N1CCC[C@H]1C(=O)N[C@@H](C)C(=O)N[C@@H](CC(=O)O)C(=O)N[C@@H](CC(C)C)C(=O)N[C@@H](Cc1c[nH]c2ccccc12)C(=O)N[C@@H](CC(=O)O)C(=O)N[C@@H](Cc1c[nH]c2ccccc12)C(=O)N[C@H](C(=O)N[C@@H](CC(N)=O)C(=O)N[C@@H](CCCCN)C(N)=O)[C@@H](C)CC)[C@@H](C)CC)[C@@H](C)O` [SEQ ID NO: 167] (Ac-IHATIPADLWDWINK-NH2), the IC50 was less than 10 µM.

`CC[C@H](C)[C@H](NC(C)=O)C(=O)N[C@@H](Cc1c[nH]cn1)C(=O)NCC(=O)N[C@H](C(=O)N[C@H](C(=O)N1CCC[C@H]1C(=O)N[C@@H](C)C(=O)N[C@@H](CC(=O)O)C(=O)N[C@@H](CC(C)C)C(=O)N[C@@H](Cc1c[nH]c2ccccc12)C(=O)N[C@@H](CC(=O)O)C(=O)N[C@@H](Cc1c[nH]c2ccccc12)C(=O)N[C@H](C(=O)N[C@@H](CC(N)=O)C(=O)N[C@@H](CCCCN)C(N)=O)[C@@H](C)CC)[C@@H](C)CC)[C@@H](C)O` [SEQ ID NO: 168] (Ac-IHGTIPADLWDWINK-NH2): the IC50 is less than 10 µM.

Take `CC[C@H](C)[C@H](NC(C)=O)C(=O)N[C@@H](Cc1c[nH]cn1)C(=O)N[C@@H](CC(C)C)C(=O)N[C@H](C(=O)N[C@H](C(=O)N1CCC[C@H]1C(=O)N[C@@H](C)C(=O)N[C@@H](CC(=O)O)C(=O)N[C@@H](CC(C)C)C(=O)N[C@@H](Cc1c[nH]c2ccccc12)C(=O)N[C@@H](CC(=O)O)C(=O)N[C@@H](Cc1c[nH]c2ccccc12)C(=O)N[C@H](C(=O)N[C@@H](CC(N)=O)C(=O)N[C@@H](CCCCN)C(N)=O)[C@@H](C)CC)[C@@H](C)CC)[C@@H](C)O` [SEQ ID NO: 169] (Ac-IHLTIPADLWDWINK-NH2): the IC50 is less than 10 µM.

With `CC[C@H](C)[C@H](NC(C)=O)C(=O)N[C@@H](Cc1c[nH]cn1)C(=O)N1CCC[C@H]1C(=O)N[C@H](C(=O)N[C@H](C(=O)N1CCC[C@H]1C(=O)N[C@@H](C)C(=O)N[C@@H](CC(=O)O)C(=O)N[C@@H](CC(C)C)C(=O)N[C@@H](Cc1c[nH]c2ccccc12)C(=O)N[C@@H](CC(=O)O)C(=O)N[C@@H](Cc1c[nH]c2ccccc12)C(=O)N[C@H](C(=O)N[C@@H](CC(N)=O)C(=O)N[C@@H](CCCCN)C(N)=O)[C@@H](C)CC)[C@@H](C)CC)[C@@H](C)O` [SEQ ID NO: 170] (Ac-IHPTIPADLWDWINK-NH2), the IC50 was less than 10 µM.

With `CC[C@H](C)[C@H](NC(C)=O)C(=O)N[C@@H](Cc1c[nH]cn1)C(=O)N[C@H](C(=O)N[C@H](C(=O)N[C@H](C(=O)N1CCC[C@H]1C(=O)N[C@@H](C)C(=O)N[C@@H](CC(=O)O)C(=O)N[C@@H](CC(C)C)C(=O)N[C@@H](Cc1c[nH]c2ccccc12)C(=O)N[C@@H](CC(=O)O)C(=O)N[C@@H](Cc1c[nH]c2ccccc12)C(=O)N[C@H](C(=O)N[C@@H](CC(N)=O)C(=O)N[C@@H](CCCCN)C(N)=O)[C@@H](C)CC)[C@@H](C)CC)[C@@H](C)O)[C@@H](C)CC` [SEQ ID NO: 171] (Ac-IHITIPADLWDWINK-NH2), the IC50 is less than 10 µM.

On to `CC[C@H](C)[C@H](NC(C)=O)C(=O)N[C@@H](Cc1c[nH]cn1)C(=O)N[C@@H](Cc1ccc(O)cc1)C(=O)N[C@H](C(=O)N[C@H](C(=O)N1CCC[C@H]1C(=O)N[C@@H](C)C(=O)N[C@@H](CC(=O)O)C(=O)N[C@@H](CC(C)C)C(=O)N[C@@H](Cc1c[nH]c2ccccc12)C(=O)N[C@@H](CC(=O)O)C(=O)N[C@@H](Cc1c[nH]c2ccccc12)C(=O)N[C@H](C(=O)N[C@@H](CC(N)=O)C(=O)N[C@@H](CCCCN)C(N)=O)[C@@H](C)CC)[C@@H](C)CC)[C@@H](C)O` [SEQ ID NO: 172] (Ac-IHYTIPADLWDWINK-NH2), for which the IC50 is less than 10 µM.

`CC[C@H](C)[C@H](NC(C)=O)C(=O)N[C@@H](Cc1c[nH]cn1)C(=O)N[C@@H](Cc1c[nH]c2ccccc12)C(=O)N[C@H](C(=O)N[C@H](C(=O)N1CCC[C@H]1C(=O)N[C@@H](C)C(=O)N[C@@H](CC(=O)O)C(=O)N[C@@H](CC(C)C)C(=O)N[C@@H](Cc1c[nH]c2ccccc12)C(=O)N[C@@H](CC(=O)O)C(=O)N[C@@H](Cc1c[nH]c2ccccc12)C(=O)N[C@H](C(=O)N[C@@H](CC(N)=O)C(=O)N[C@@H](CCCCN)C(N)=O)[C@@H](C)CC)[C@@H](C)CC)[C@@H](C)O` [SEQ ID NO: 173] (Ac-IHWTIPADLWDWINK-NH2): the IC50 was less than 10 µM.

Consider `CC[C@H](C)[C@H](NC(C)=O)C(=O)N[C@@H](Cc1c[nH]cn1)C(=O)N[C@@H](Cc1ccccc1)C(=O)N[C@H](C(=O)N[C@H](C(=O)N1CCC[C@H]1C(=O)N[C@@H](C)C(=O)N[C@@H](CC(=O)O)C(=O)N[C@@H](CC(C)C)C(=O)N[C@@H](Cc1c[nH]c2ccccc12)C(=O)N[C@@H](CC(=O)O)C(=O)N[C@@H](Cc1c[nH]c2ccccc12)C(=O)N[C@H](C(=O)N[C@@H](CC(N)=O)C(=O)N[C@@H](CCCCN)C(N)=O)[C@@H](C)CC)[C@@H](C)CC)[C@@H](C)O` [SEQ ID NO: 174] (Ac-IHFTIPADLWDWINK-NH2), for which the IC50 was less than 10 µM.

As for `CC[C@H](C)[C@H](NC(C)=O)C(=O)N[C@@H](Cc1c[nH]cn1)C(=O)N[C@H](C(=O)N[C@@H](CO)C(=O)N[C@H](C(=O)N1CCC[C@H]1C(=O)N[C@@H](C)C(=O)N[C@@H](CC(=O)O)C(=O)N[C@@H](CC(C)C)C(=O)N[C@@H](Cc1c[nH]c2ccccc12)C(=O)N[C@@H](CC(=O)O)C(=O)N[C@@H](Cc1c[nH]c2ccccc12)C(=O)N[C@H](C(=O)N[C@@H](CC(N)=O)C(=O)N[C@@H](CCCCN)C(N)=O)[C@@H](C)CC)[C@@H](C)CC)C(C)C` [SEQ ID NO: 175] (Ac-IHVSIPADLWDWINK-NH2), the IC50 was less than 10 µM.

For `CC[C@H](C)[C@H](NC(C)=O)C(=O)N[C@@H](Cc1c[nH]cn1)C(=O)N[C@H](C(=O)N[C@@H](Cc1ccc(O)cc1)C(=O)N[C@H](C(=O)N1CCC[C@H]1C(=O)N[C@@H](C)C(=O)N[C@@H](CC(=O)O)C(=O)N[C@@H](CC(C)C)C(=O)N[C@@H](Cc1c[nH]c2ccccc12)C(=O)N[C@@H](CC(=O)O)C(=O)N[C@@H](Cc1c[nH]c2ccccc12)C(=O)N[C@H](C(=O)N[C@@H](CC(N)=O)C(=O)N[C@@H](CCCCN)C(N)=O)[C@@H](C)CC)[C@@H](C)CC)C(C)C` [SEQ ID NO: 176] (Ac-IHVYIPADLWDWINK-NH2), the IC50 is less than 10 µM.
